Reference: patent US5877210A, “Phosphotyrosine phosphatase inhibitors or phosphotyrosine kinase activators for controlling cellular proliferation” (priority 1995, dated 1999)
pIC50: −log10 of the molar value. “Also recorded” adds a separate entry of the source.

Legend:
[1] = system: calf intestinal alkaline phosphatase; assay: Alkaline phosphatase inhibition; type: biochemical
REH = assay: Clonogenic assay in methylcellulose; type: cell-based; settings: for colonies formed: seven days
Protocol: (§1) The selective cytotoxicity of BMLOV was examined in clonogenic assays. Cells were grown in methylcellulose media and the number of colonies formed after seven days of treatment with various doses of the drug were determined. The clonogenic assays were performed with six replicates for each treatment as described [F. M. Uckun et al., J. Exp. Med. 163:347-368 (1986); F. M. Uckun & J. A. Ledbetter, Proc. Natl. Acad. Sci. USA 85:8603-8607 (1988)). The data is given plus/minus the standard error of the mean.
(§2) For assays of cellular proliferation, cells were grown five days in the presence of the indicated concentrations of BMLOV, pulsed 6 hr with [^3 H]-thymidine (New England Nuclear, Boston, Mass.), and counted in a liquid scintillation counter. Human peripheral blood lymphocytes (PBL) from normal volunteers were isolated from lymphocyte separation medium (Litton Bionetics, Kensington, Md.) by density gradient centrifugation. Monocytes were depleted from PBL by two rounds of plastic absorption for 30 minutes at 37° C. B cells were enriched for by negative selection using complement plus monoclonal antibodies to CD2, CD3, CD4, and CD8 for complement depletion. Clonogenic assays of colony formation in methylcellulose medium were performed as previously described (F. M. Uckun et al. (1992), supra).

T cell line CEM = assay: Clonogenic assay in methylcellulose; type: cell-based, human; settings: dose as high as 100 μM BMLOV
Protocol: as §1

[2] = system: MDAMB-453 breast carcinoma cells; assay: Clonogenic assay in methylcellulose; type: cell-based; settings: dose as high as 100 μM BMLOV
Protocol: as §1

CEM = assay: [3H]thymidine incorporation assay; type: cell-based, human; settings: for [3H]cpm incorporation: seven days
Protocol: (§3) For each cell type, the cells were passaged uniformly for all drug doses given during the seven-day period. The cells were then pulsed for six hours with [^3 H]thymidine. The extent of DNA synthesis was then determined by counting the radioactivity incorporated into the cells.
as §2

HL-60 = assay: [3H]thymidine incorporation assay; type: cell-based, human; settings: for [3H]cpm incorporation: seven days
Protocol: as §3, §2

Jurkat = assay: [3H]thymidine incorporation assay; type: cell-based, human; settings: for [3H]cpm incorporation: seven days
Protocol: as §3, §2

THP-1 = assay: [3H]thymidine incorporation assay; type: cell-based, human; settings: for [3H]cpm incorporation: seven days
Protocol: as §3, §2

pp60^c-src = assay: pp60c-src kinase activity in colon carcinoma cell lines; type: cell-based; settings: two colon carcinoma cell lines expressing Src; dose-dependent
Description: Many colon carcinomas are known to express the Src oncogene product at high levels.

i.p. B16 murine melanoma = type: in vivo
Protocol: The cumulative dose MTD of 54 mg/kg was similar to the 60 mg/kg cumulative MTD observed in the last M109 experiment.

A2780/Tax22 = assay: In vitro cytotoxicity, XTT assay
Protocol: (§4) The vanadate compound pV(phen) was tested for in vitro cytotoxicity in a panel of human tumor cell lines. The cell lines used were a human colon carcinoma cell line, HCT116, and two drug-resistant sublines. The HCT116(VM46) subline was selected for resistance to VM-26 and expresses the multidrug resistant (MDR) phenotype including resistance to lipophilic anticancer drugs such as paclitaxel, VP-16, VM-26, doxorubicin, and vinblastine. This cell line overexpresses P-glycoprotein, a cell surface drug efflux pump, which limits accumulation of anticancer drugs such as the ones mentioned above. […] The compound pV(phen) was also evaluated in the ovarian carcinoma cell line A2780 and a paclitaxel resistant subline A2780-Tax22.
(§5) In the cytotoxicity assays, cells were plated and 24 hr later drugs were added and serially diluted. After 72 hr of continuous drug exposure, the tetrazolium dye XTT was added. A dehydrogenase enzyme in live cells reduces the XTT to a form that absorbs light at 450 nm which can be quantitated spectrophotometrically. The greater absorbance, the greater is the number of live cells. The results are expressed as a IC50 which is a drug concentration required to inhibit cell proliferation (i.e., absorbance at 450 nm) to 50% of that of untreated control cells.

HCT116(VM)46 = assay: In vitro cytotoxicity, XTT assay
Protocol: as §4, §5

HCT116(VP)35 = assay: In vitro cytotoxicity, XTT assay
Protocol: as §4, §5

Cc1occc(=O)c1[O-].Cc1occc(=O)c1[O-].[O]=[V+2] [BMLOV, Bis(maltolato)oxovanadium (IV)]
inhibition of calf intestinal alkaline phosphatase ([1]; 500 μM BMLOV): less than 10% | pIC50 ([1]; Table 1, p-nitrophenyl phosphate substrate): < 3.30 | pIC50 ([1]; Table 8): < 3.30 | percentage of inhibition of clonogenic growth (REH; 1 μM BMLOV): 64.7% | colonies formed (REH; 1 μM BMLOV): 1810 ± 385 colonies per 10^4 cells | percentage of inhibition of clonogenic growth (REH; 5 μM BMLOV): 98.6% | colonies formed (REH; 5 μM BMLOV): 71 ± 8 colonies per 10^4 cells | percentage of inhibition of clonogenic growth (REH; 10 μM BMLOV): 99.8% | colonies formed (REH; 10 μM BMLOV): 8 ± 1 colonies per 10^4 cells | inhibition of clonogenic growth (T cell line CEM): inhibited only moderately | inhibition of clonogenic growth [2]: inhibited only moderately | [3H]cpm incorporation (CEM; 1 μM BMLOV): 368721 cpm | [3H]cpm incorporation (CEM; 5 μM BMLOV): 403576 cpm | [3H]cpm incorporation (CEM; 10 μM BMLOV): 371256 cpm | [3H]cpm incorporation (CEM; 25 μM BMLOV): 313714 cpm | sensitivity of proliferation to BMLOV, in words (CEM; 25 μM, 5 or 7 days): resistant; also recorded: only small effects | [3H]cpm incorporation (HL-60; 1 μM BMLOV): 191637 cpm | [3H]cpm incorporation (HL-60; 5 μM BMLOV): 276505 cpm | [3H]cpm incorporation (HL-60; 10 μM BMLOV): 222178 cpm | [3H]cpm incorporation (HL-60; 25 μM BMLOV): 11398 cpm | sensitivity of proliferation to BMLOV, in words (HL-60; 25 μM, 5 or 7 days): moderately sensitive; also recorded: showed an inhibition of growth | [3H]cpm incorporation (Jurkat; 1 μM BMLOV): 149950 cpm | [3H]cpm incorporation (Jurkat; 5 μM BMLOV): 118720 cpm | [3H]cpm incorporation (Jurkat; 10 μM BMLOV): 98057 cpm | [3H]cpm incorporation (Jurkat; 25 μM BMLOV): 26511 cpm | sensitivity of proliferation to BMLOV, in words (Jurkat; 25 μM, 5 or 7 days): moderately sensitive; also recorded: substantially inhibited | [3H]cpm incorporation (THP-1; 1 μM BMLOV): 201670 cpm | [3H]cpm incorporation (THP-1; 5 μM BMLOV): 178290 cpm | [3H]cpm incorporation (THP-1; 10 μM BMLOV): 199993 cpm | [3H]cpm incorporation (THP-1; 25 μM BMLOV): 112209 cpm | sensitivity of proliferation to BMLOV, in words (THP-1; 25 μM, 5 or 7 days): only partial sensitivity; also recorded: showed an inhibition of growth | pp60c-src activity (pp60^c-src): strongly inhibited

[Na+].[O]=[V-]12([O][O]1)[O][O]2.c1cnc2c(c1)ccc1cccnc12 [pV(phen), sodium (1,10-phenanthroline) oxodiperoxovanadium (V)]
Max. % T/C (i.p. B16 murine melanoma; Expt. 799, 6 mg/kg/inj (MTD reached), qd 1→9, ip): 152% | maximum tolerated dose (MTD) (i.p. B16 murine melanoma; mouse, in vivo, ip): 6 mg/kg per injection | pIC50 (A2780/Tax22; a2780/tax22 cells, 72 h): 5.12 | fold resistance relative to parental cell line (A2780/Tax22; vs A2780, 4320 min): 0.9 fold | pIC50 (HCT116(VM)46; hct116(vm46) cells, 72 h): 5.70 | fold resistance relative to parental cell line (HCT116(VM)46; vs HCT116, 4320 min): 0.2 fold | pIC50 (HCT116(VP)35; hct116(vp35) cells, 72 h): 5.14 | fold resistance relative to parental cell line (HCT116(VP)35; vs HCT116, 4320 min): 0.9 fold
